Laboratory results reported in ChEMBL document CHEMBL5131468, “Systematic comparison of activity and mechanism of antimicrobial peptides against nosocomial pathogens” (Eur J Med Chem, 2022).
Values after ≈ are worked out from the molar mass of the structure shown. Active and inactive are the calls of the source. No cut-off for these calls is given here. Peptide text beside a SMILES is read from it.

Assays:
Cell membrane [1] = experiment: Induction of membrane depolarization in Escherichia coli ATCC 25922 at 0.25 to 0.5 times MIC after 60 mins by DiOC23 dye based based flow cytometry; assay type: subcellular
Cell membrane [2] = experiment: Induction of outer membrane permeabilization in Escherichia coli BAA3051 assessed as increase in NPN fluorescence intensity incubated for 15 mins by NPN-dye based fluorescence analysis
Cell membrane [3] = experiment: Induction of membrane depolarization in Salmonella enterica serovar typhimurium SL1344 at 0.5 times MIC after 60 mins by DiOC23 dye based based flow cytometry relative to control; settings: Salmonella enterica subsp. enterica serovar Typhimurium
Enterococcus faecalis [4] = experiment: Bactericidal activity against Enterococcus faecalis ATCC 29212 incubated for 90 mins by serial dilution assay; assay type: functional
Escherichia coli [5] = experiment: Bactericidal activity against Escherichia coli BAA3051 incubated for 90 mins by serial dilution assay; assay type: functional
Cell membrane [6] = experiment: Induction of membrane depolarization in Staphylococcus aureus ATCC 29213 at 0.25 times MIC after 60 mins by DiOC23 dye based based flow cytometry; assay type: subcellular
Cell membrane [7] = experiment: Induction of outer membrane permeabilization in Escherichia coli ATCC 25922 assessed as increase in NPN fluorescence intensity incubated for 15 mins by NPN-dye based fluorescence analysis; assay type: subcellular
HEK293 [8] = experiment: Cytotoxicity against human HEK293 cells assessed as decrease in live cells at 250 ug/ml incubated for 2 hrs by MTS assay; assay type: toxicity, cell-based; settings: hek293, 2 h, dose 250 µg/ml
Cell membrane [9] = experiment: Induction of membrane depolarization in Staphylococcus aureus ATCC 29213 at 0.5 times MIC after 60 mins by DiOC23 dye based based flow cytometry relative to control; assay type: subcellular
Cell membrane [10] = experiment: Induction of membrane depolarization in Escherichia coli ATCC 25922 at 0.5 times MIC after 60 mins by DiOC23 dye based based flow cytometry relative to control
Cell membrane [11] = experiment: Induction of membrane depolarization in Salmonella enterica serovar typhimurium SL1344 at 0.25 to 0.5 times MIC after 60 mins by DiOC23 dye based based flow cytometry; assay type: subcellular; settings: Salmonella enterica subsp. enterica serovar Typhimurium
Staphylococcus aureus [12] = experiment: Bactericidal activity against Methicillin resistant Staphylococcus aureus ATCC 33591 incubated for 90 mins by serial dilution assay; assay type: functional
HEK293 [13] = experiment: Cytotoxicity against human HEK293 cells assessed as decrease in live cells upto 125 ug/ml incubated for 2 hrs by MTS assay; assay type: toxicity, cell-based; settings: hek293, 2 h, dose < 125 µg/ml
Staphylococcus aureus [14] = experiment: Antibacterial activity against Staphylococcus aureus ATCC 29213 assessed as inhibition of bacterial growth incubated for 90 mins by serial dilution assay; assay type: functional
Staphylococcus aureus [15] = experiment: Bactericidal activity against Staphylococcus aureus ATCC 29213 incubated for 90 mins by serial dilution assay; assay type: functional
Cell membrane [16] = experiment: Induction of membrane depolarization in Enterococcus faecalis ATCC 29212 at 0.5 times MIC after 60 mins by DiOC23 dye based based flow cytometry relative to control
Escherichia coli [17] = experiment: Antibacterial activity against Escherichia coli ATCC 25922 assessed as inhibition of bacterial growth incubated for 90 mins by serial dilution assay; assay type: functional
Salmonella typhimurium [18] = experiment: Bactericidal activity against Salmonella enterica serovar typhimurium SL1344 incubated for 90 mins by serial dilution assay; assay type: functional, Salmonella enterica subsp. enterica serovar Typhimurium
Enterococcus faecalis [19] = experiment: Antibacterial activity against Enterococcus faecalis ATCC 29212 assessed as inhibition of bacterial growth incubated for 90 mins by serial dilution assay; assay type: functional
Cell membrane [20] = experiment: Induction of inner membrane damage in Escherichia coli ATCC 25922 assessed disruption of membrane integrity at 0.5 to 256 ug/ml and measured after 90 mins by propidium iodide staining based flow cytometry; assay type: subcellular; settings: dose 0.5-256 µg/ml
Staphylococcus aureus [21] = experiment: Antibacterial activity against Methicillin resistant Staphylococcus aureus ATCC 33591 assessed as inhibition of bacterial growth incubated for 90 mins by serial dilution assay; assay type: functional
Salmonella typhimurium [22] = experiment: Antibacterial activity against Salmonella enterica serovar typhimurium SL1344 assessed as inhibition of bacterial growth incubated for 90 mins by serial dilution assay; assay type: functional, Salmonella enterica subsp. enterica serovar Typhimurium
Escherichia coli [23] = experiment: Bactericidal activity against Escherichia coli ATCC 25922 incubated for 90 mins by serial dilution assay; assay type: functional
Cell membrane [24] = experiment: Induction of outer membrane permeabilization in Salmonella enterica serovar typhimurium SL1344 assessed as increase in NPN fluorescence intensity incubated for 15 mins by NPN-dye based fluorescence analysis; assay type: subcellular; settings: Salmonella enterica subsp. enterica serovar Typhimurium
Staphylococcus aureus [25] = experiment: Induction of morphological changes in Staphylococcus aureus ATCC 29213 at 0.5 to 2 times MIC incubated for 90 mins by Helium ion microscopy; assay type: functional, organism-based
Cell membrane [26] = experiment: Induction of membrane depolarization in Enterococcus faecalis ATCC 29212 at 0.25 times MIC after 60 mins by DiOC23 dye based based flow cytometry; assay type: subcellular
Escherichia coli [27] = experiment: Antibacterial activity against Escherichia coli BAA3051 assessed as inhibition of bacterial growth incubated for 90 mins by serial dilution assay; assay type: functional
Lipid bilayer = experiment: Induction of membrane disruption in Gram-negative bacterial cell membrane mimic POPE:POPG(7:3) large unilamellar vesicle assessed as carboxyfluorescein leakage by fluorescence analysis
HEK293 [28] = experiment: Cytotoxicity against human HEK293 cells assessed as decrease in live cells at 15.6 ug/ml incubated for 2 hrs by MTS assay; assay type: toxicity, cell-based; settings: hek293, 2 h, dose 15.6 µg/ml
Escherichia coli [29] = experiment: Induction of morphological changes in Escherichia coli ATCC 25922 assessed as membrane collapse at 0.5 to 2 times MIC incubated for 90 mins by Helium ion microscopy; assay type: functional, organism-based
HEK293 [30] = experiment: Cytotoxicity against human HEK293 cells assessed as increase in LDH release at 31.25 ug/ml incubated for 2 hrs by LDH assay; assay type: toxicity, cell-based; settings: hek293, 2 h, dose 31.25 µg/ml
Escherichia coli [31] = experiment: Induction of morphological changes in Escherichia coli ATCC 25922 at 0.5 times MIC incubated for 90 mins by Helium ion microscopy; assay type: functional, organism-based
Staphylococcus aureus [32] = experiment: Induction of morphological changes in Staphylococcus aureus ATCC 29213 incubated for 90 mins by Helium ion microscopy; assay type: functional, organism-based
Cell membrane [33] = experiment: Induction of inner membrane damage in Staphylococcus aureus ATCC 29213 assessed disruption of membrane integrity at 0.5 to 256 ug/ml and measured after 90 mins by propidium iodide staining based flow cytometry; assay type: subcellular; settings: dose 0.5-256 µg/ml
Escherichia coli [34] = experiment: Induction of morphological changes in Escherichia coli ATCC 25922 assessed as leakage in intracellular contents at 0.5 times MIC incubated for 90 mins by Helium ion microscopy; assay type: functional, organism-based
Escherichia coli [35] = experiment: Induction of morphological changes in Escherichia coli ATCC 25922 assessed as leakage in intracellular contents at 0.5 to 2 times MIC incubated for 90 mins by Helium ion microscopy; assay type: functional, organism-based
[36] = Salmonella enterica subsp. enterica serovar Typhimurium

Compound | Activity (Cell membrane [1]) [%] | Activity (Cell membrane [2]) | Activity (Cell membrane [3]) [%] | MBC (Enterococcus faecalis [4]; ATCC 29212, 1.5 h) [µg/mL] | MBC (Escherichia coli [5]; BAA3051, 1.5 h) [µg/mL] | Activity (Cell membrane [7]) | Activity (Cell membrane [9]) [%] | Activity (Cell membrane [10]) [%] | Activity (Cell membrane [11]) [%] | MBC (Staphylococcus aureus [12]; ATCC 33591, 1.5 h) [µg/mL] | MIC (Staphylococcus aureus [14]; ATCC 29213, 1.5 h) [µg/mL] | MBC (Staphylococcus aureus [15]; ATCC 29213, 1.5 h) [µg/mL] | Activity (Cell membrane [16]) [%] | MIC (Escherichia coli [17]; ATCC 25922, 1.5 h) [µg/mL] | MBC (Salmonella typhimurium [18]; SL1344, 1.5 h) [µg/mL] | MIC (Enterococcus faecalis [19]; ATCC 29212, 1.5 h) [µg/mL] | Activity (Cell membrane [20]) | MIC (Staphylococcus aureus [21]; ATCC 33591, 1.5 h) [µg/mL] | MIC (Salmonella typhimurium [22]; SL1344, 1.5 h) [µg/mL] | MBC (Escherichia coli [23]; ATCC 25922, 1.5 h) [µg/mL] | other results
CC[C@H](C)[C@H](NC(=O)[C@H](CO)NC(=O)[C@H](CCCCN)NC(=O)[C@H](Cc1c[nH]c2ccccc12)NC(=O)[C@H](CC(C)C)NC(=O)[C@H](C)N)C(=O)N[C@@H](CC(C)C)C(=O)N[C@@H](CCCCN)C(=O)N[C@@H](CC(N)=O)C(=O)N[C@H](C(=O)NCC(=O)N[C@@H](CCCCN)C(=O)N[C@@H](C)C(=O)N[C@@H](C)C(=O)NCC(=O)N[C@@H](CCCCN)C(=O)N[C@@H](C)C(=O)N[C@H](C(=O)N[C@@H](CC(C)C)C(=O)O)C(C)C)C(C)C (H-ALWKSILKNVGKAAGKAVL-OH) | 30 | Active | 40 | 250 (≈ 127 µM) | 31.3 (≈ 15.9 µM) | Active | 40 | 40 | 30 | > 250 | 62.5 (≈ 31.8 µM) | > 125 | 40 | 31.3 (≈ 15.9 µM) | 250 (≈ 127 µM) | 250 (≈ 127 µM) | Active | > 125 | 250 (≈ 127 µM) | 31.3 (≈ 15.9 µM) | Activity (Cell membrane [6]): Active; Activity (HEK293 [8]): Toxic; Activity (HEK293 [13]): Toxic; Activity (Cell membrane [24]): Active; Activity (Staphylococcus aureus [25]): Active; Activity (Cell membrane [26]): Active; MIC (Escherichia coli [27]; BAA3051, 1.5 h): 31.3 µg/mL (≈ 15.9 µM)
CC[C@H](C)[C@H](NC(=O)[C@H](CCCCN)NC(=O)[C@@H](NC(=O)[C@H](Cc1ccccc1)NC(=O)[C@H](C)NC(=O)[C@H](CCCCN)NC(=O)CNC(=O)[C@H](Cc1ccccc1)NC(=O)[C@H](CCCCN)NC(=O)[C@H](CCCCN)NC(=O)[C@H](C)NC(=O)[C@H](CCCCN)NC(=O)[C@H](CCCCN)NC(=O)[C@H](CC(C)C)NC(=O)[C@H](Cc1ccccc1)NC(=O)[C@@H](N)CCCCN)C(C)C)C(=O)N[C@@H](CC(C)C)C(=O)O (H-KFLKKAKKFGKAFVKIL-OH) | 30 | Active | 40 | 125 (≈ 62.7 µM) | 7.8 (≈ 3.91 µM) | Active | 40 | 40 | 30 | > 125 | 15.6 (≈ 7.82 µM) | 31.3 (≈ 15.7 µM) | 40 | 15.6 (≈ 7.82 µM) | 7.8 (≈ 3.91 µM) | 31.3 (≈ 15.7 µM) | Active | > 125 | 7.8 (≈ 3.91 µM) | 15.6 (≈ 7.82 µM) | Activity (Lipid bilayer): 20%; Activity (HEK293 [28]): Toxic; Activity (Escherichia coli [29]): Active; Activity (HEK293 [30]): Toxic; Activity (Escherichia coli [31]): Active; Activity (Staphylococcus aureus [32]): Active; Activity (Cell membrane [33]): Active; Activity (Escherichia coli [34]): Active; Activity (Escherichia coli [35]): Active; Activity (Cell membrane [24]): Active; Activity (Staphylococcus aureus [25]): Active; MIC (Escherichia coli [27]; BAA3051, 1.5 h): 7.8 µg/mL (≈ 3.91 µM)
GENTAMICIN |  |  |  |  |  |  |  |  |  |  |  |  |  |  |  |  |  |  |  |  | MBC (Enterococcus faecalis [4]): 31.3 µg/mL; MBC (Escherichia coli [5]): 1.9 µg/mL; MBC (Staphylococcus aureus [12]): 62.5 µg/mL; MIC (Staphylococcus aureus [14]): 3.9 µg/mL; MBC (Staphylococcus aureus [15]): 6.25 µg/mL; MIC (Escherichia coli [17]): 0.9 µg/mL; MBC (Salmonella typhimurium [18]; [36]): 12.5 µg/mL; MIC (Enterococcus faecalis [19]): 3.9 µg/mL; MIC (Staphylococcus aureus [21]): 7.8 µg/mL; MIC (Salmonella typhimurium [22]; [36]): 12.5 µg/mL; MBC (Escherichia coli [23]): 6.25 µg/mL; MIC (Escherichia coli [27]): 1.9 µg/mL
